Measurements reported in PubChem BioAssay AID835 (The Scripps Research Institute Molecular Screening Center, 2007).
Active and inactive are the calls of the source. No rule for the calls is given here.

Biological target: Ephrin type-B receptor 4 (Homo sapiens) (UniProt P54760)
Test: EphB4-ephrin-B2 interaction antagonists, dose response, biochemical, TNYL-RAW peptide displacement (AID 835)

Sequence of Ephrin type-B receptor 4 (Homo sapiens) (P54760 whole entry, looked up): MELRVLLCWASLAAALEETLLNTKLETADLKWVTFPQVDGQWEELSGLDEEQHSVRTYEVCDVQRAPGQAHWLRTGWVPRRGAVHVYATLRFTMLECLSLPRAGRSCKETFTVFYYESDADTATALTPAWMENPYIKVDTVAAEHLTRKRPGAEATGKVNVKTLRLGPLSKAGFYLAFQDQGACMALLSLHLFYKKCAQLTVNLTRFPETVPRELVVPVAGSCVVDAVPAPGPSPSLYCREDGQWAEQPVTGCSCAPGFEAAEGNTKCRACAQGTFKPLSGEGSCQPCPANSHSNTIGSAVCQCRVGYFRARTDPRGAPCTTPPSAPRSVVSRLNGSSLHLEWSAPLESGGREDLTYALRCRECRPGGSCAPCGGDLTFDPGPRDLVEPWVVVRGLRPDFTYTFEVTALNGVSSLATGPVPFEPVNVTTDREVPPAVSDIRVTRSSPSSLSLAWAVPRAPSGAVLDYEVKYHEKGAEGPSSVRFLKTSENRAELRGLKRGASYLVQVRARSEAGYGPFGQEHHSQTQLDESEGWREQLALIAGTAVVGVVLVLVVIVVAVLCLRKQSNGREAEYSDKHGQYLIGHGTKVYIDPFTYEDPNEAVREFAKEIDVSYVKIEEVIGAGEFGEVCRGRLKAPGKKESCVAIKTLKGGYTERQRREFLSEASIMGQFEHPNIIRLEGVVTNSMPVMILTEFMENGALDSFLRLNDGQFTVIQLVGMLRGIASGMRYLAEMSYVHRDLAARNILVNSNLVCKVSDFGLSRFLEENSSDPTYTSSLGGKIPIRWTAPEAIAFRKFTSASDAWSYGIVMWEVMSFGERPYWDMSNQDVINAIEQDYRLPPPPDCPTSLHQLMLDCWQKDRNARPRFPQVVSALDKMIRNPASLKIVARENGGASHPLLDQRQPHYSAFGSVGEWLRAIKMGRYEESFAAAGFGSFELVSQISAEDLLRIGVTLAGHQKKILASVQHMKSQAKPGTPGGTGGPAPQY

| SMILES | IC50 |
| --- | --- |
| CC1=Nc2ccccc2/C1=C\c1nc(-c2ccc(C(F)(F)F)cc2)oc1O | > 79.4 µM (inactive) |
| Clc1cccc(/C=N/Nc2ncnc3ccccc23)c1 | > 79.4 µM (inactive) |
| COC(=O)CSC1=C(C#N)C(c2ccc(C)cc2)C2=C(CCCC2=O)N1 (centres undefined) | > 79.4 µM (inactive) |
| CCCc1[nH]nc2c1C(c1ccc(OC)c(Cn3nnc4ccccc43)c1)C(C#N)=C(N)O2 (centres undefined) | > 79.4 µM (inactive) |
| CCn1c(O)c(C=Nc2ccc(N3CCOCC3)cc2)c(=O)n(CC)c1=S | > 79.4 µM (inactive) |
| CCOc1cccc(N2C(=O)CC(=O)NC2=O)c1 | > 79.4 µM (inactive) |
| CCOC(=O)C1=C(c2ccccc2)N2CCS(=O)(=O)N=C2S1 | > 79.4 µM (inactive) |
| Oc1[nH]c2ccccc2c1N=Nc1nc2ccccc2s1 | > 79.4 µM (inactive) |
| CC1=Nc2ccccc2/C1=C\c1nc(-c2ccc(F)cc2)oc1O | > 79.4 µM (inactive) |
